Measurements as given in the supplement of paper PMC10307832.

How the values were obtained:
Assay in all cases: relative viability (nuclei count vs DMSO), 5 days (fraction); higher = more cells survive
[1] = compound: C1/C(=C\C2=CC=CS2)/C(=O)/C(=C/C3=CC=CS3)/C1 + CC(=O)Nc1cccc(-n2c(=O)n(C3CC3)c(=O)c3c(Nc4ccc(I)cc4F)n(C)c(=O)c(C)c32)c1 [Trametinib] (partner 0.02 µM)
Summary of the method: (§1)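 Dosing by pin tool came one day after lung cancer cell lines were seeded in 1536-well plates, using either one drug or a fixed anchor-drug dose plus five library-drug doses (not always all listed) in √10 steps. After 5 days, nuclei were counted on 4× images. Relative viability is treated-well nuclei count divided by vehicle-well nuclei count, and values are medians of duplicate plates.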

[2] = compound: C1/C(=C\C2=CC=CS2)/C(=O)/C(=C/C3=CC=CS3)/C1 + Nc1nc2[nH]cc(CCc3ccc(C(=O)N[C@@H](CCC(=O)O)C(=O)O)cc3)c2c(=O)[nH]1 [Pemetrexed] (partner 0.2 µM)
Summary of the method: as §1

[3] = compound: C1=CC(=CC=C1C2=CC(=C(S2)NC(=O)N)C(=O)N)F [TPCA-1] + CCNC(=O)c1noc(-c2cc(C(C)C)c(O)cc2O)c1-c1ccc(CN2CCOCC2)cc1 [Luminespib] (partner 0.01 µM)
Summary of the method: as §1

[4] = compound: C1=CC(=CC=C1C2=CC(=C(S2)NC(=O)N)C(=O)N)F [TPCA-1] + NC(=O)Nc1cc(-c2cccc(F)c2)sc1C(=O)N[C@H]1CCCNC1 [AZD7762] (partner 0.2 µM)
Summary of the method: as §1

Cell Line | relative viability ([1]; first compound 0.2 µM) | relative viability ([1]; first compound 0.6325 µM) | relative viability ([1]; first compound 2 µM) | relative viability ([1]; first compound 6.325 µM) | relative viability ([1]; first compound 20 µM) | relative viability ([2]; first compound 0.2 µM) | relative viability ([2]; first compound 0.6325 µM) | relative viability ([2]; first compound 2 µM) | relative viability ([2]; first compound 6.325 µM) | relative viability ([2]; first compound 20 µM) | relative viability ([3]; first compound 0.04 µM) | relative viability ([3]; first compound 0.1265 µM) | relative viability ([3]; first compound 0.4 µM) | relative viability ([3]; first compound 1.265 µM) | relative viability ([3]; first compound 4 µM) | relative viability ([4]; first compound 0.4 µM) | relative viability ([4]; first compound 1.265 µM) | relative viability ([4]; first compound 4 µM) | relative viability ([4]; first compound 0.04 µM) | relative viability ([4]; first compound 0.1265 µM)
SW 900 | 0.739 | 0.752 | 0.815 | 0.308 | 0.734 | 0.481 | 0.525 | 0.49 | 0.399 | 0.482 | 0.179 | 0.176 | 0.212 | 0.201 | 0.176 | 0.685 | 0.631 | 0.586 |  | 
NCI-H1944 | 0.393 | 0.421 | 0.424 |  | 0.388 | 0.619 | 0.591 | 0.603 |  | 0.572 | 0.872 | 0.663 | 0.71 | 0.626 | 0.513 | 0.565 | 0.455 | 0.474 | 0.474 | 0.484
NCI-H727 | 0.379 | 0.414 | 0.373 |  | 0.374 |  |  |  |  |  | 0.531 | 0.453 | 0.439 | 0.487 | 0.432 | 0.497 | 0.701 | 0.698 | 0.596 | 0.68
NCI-H1650 | 0.619 | 0.679 | 0.548 | 0.627 | 0.516 | 0.35 | 0.392 | 0.42 | 0.373 | 0.367 | 0.225 |  | 0.188 | 0.185 | 0.197 |  |  |  |  | 
HCC-827 | 0.548 | 0.558 | 0.524 | 0.5 | 0.54 | 0.262 | 0.226 | 0.243 | 0.248 | 0.284 | 0.675 | 0.496 | 0.531 | 0.598 | 0.201 | 0.227 | 0.224 | 0.181 | 0.209 | 0.209
HCC-366 | 0.386 | 0.371 | 0.316 | 0.314 | 0.329 | 0.168 | 0.169 | 0.156 | 0.116 | 0.172 |  |  |  |  |  | 0.312 | 0.185 | 0.147 |  | 0.297
HARA | 0.622 | 0.78 | 0.663 | 0.937 | 0.829 | 0.249 | 0.254 | 0.228 | 0.222 | 0.241 | 0.791 | 0.754 | 0.864 | 0.83 | 0.382 | 0.39 | 0.471 | 0.349 | 0.317 | 0.504
NCI-H322M | 0.519 | 0.494 | 0.474 | 0.433 | 0.517 | 0.628 | 0.642 | 0.681 | 0.503 | 0.626 | 1 | 0.812 | 0.984 | 1.01 | 0.366 | 0.538 | 0.579 | 0.519 | 0.608 | 0.555
LXF-289 | 0.707 | 0.693 | 0.675 | 0.626 | 0.613 | 0.911 | 0.839 | 0.889 | 0.858 | 0.852 | 0.787 | 0.649 | 0.748 | 0.703 | 0.596 | 1.1 | 1.07 | 0.774 | 1.1 | 1.09
PC-3 [JPC-3] |  | 0.731 | 0.753 | 0.613 | 0.759 |  | 1.15 | 0.982 | 1.04 | 1.26 | 0.5 | 0.639 | 0.682 | 0.675 | 0.569 | 0.85 | 0.823 | 0.655 | 0.844 | 0.802
CAL-12T | 0.376 | 0.365 | 0.316 | 0.261 | 0.307 | 1.28 | 1.25 | 1.24 | 1.16 | 1.07 | 0.462 | 0.351 | 0.196 | 0.294 | 0.194 | 0.667 | 0.565 | 0.555 | 0.702 | 0.583
COR-L 105 | 0.421 | 0.463 | 0.447 | 0.402 | 0.451 | 1.37 | 1.04 | 1.26 | 1.06 | 1.13 | 0.782 | 0.658 | 0.766 | 0.738 | 0.648 |  |  |  |  | 
NCI-H2347 | 0.273 | 0.271 | 0.27 | 0.26 | 0.28 | 0.44 | 0.429 | 0.478 | 0.448 | 0.426 | 0.694 | 0.33 | 0.344 | 0.453 | 0.242 | 0.923 | 0.739 | 0.633 | 0.729 | 0.717
NCI-H2126 | 0.554 | 0.586 | 0.576 | 0.502 | 0.585 | 0.677 | 0.681 | 0.789 | 0.58 | 0.714 | 0.94 | 0.947 | 0.984 | 0.797 | 0.676 | 1.03 | 0.978 | 0.87 | 0.996 | 0.936
NCI-H838 | 0.491 | 0.516 | 0.488 | 0.448 | 0.44 | 0.249 | 0.256 | 0.261 | 0.212 | 0.242 | 0.349 | 0.398 | 0.235 | 0.268 | 0.223 | 0.935 | 0.801 | 0.886 | 0.972 | 0.855
NCI-H2342 | 0.859 | 0.819 | 0.801 | 0.672 | 0.899 | 0.781 | 0.764 | 0.838 | 0.718 | 0.747 | 0.921 | 0.66 | 0.819 | 0.754 | 0.694 | 0.403 | 0.349 | 0.404 | 0.504 | 0.469
NCI-H1623 |  |  |  |  |  |  |  |  |  |  | 0.601 | 0.555 | 0.54 | 0.433 | 0.426 |  |  |  |  | 
SK-LU-1 | 0.563 | 0.503 | 0.536 | 0.411 | 0.489 | 1.12 | 1.03 | 0.942 | 0.829 | 1.02 | 0.232 | 0.203 | 0.212 | 0.206 | 0.215 |  |  |  |  | 
